# Molecular target: T1, BTK C481S (Homo sapiens, UniProt Q06187, C481S)
# T1 construct: Human wild type BTK full length was obtained from the ORFeome; expressed in transfected cells; host or cells: U2OS (ATCC HTB-96), pCDNA3.1, CMV promoter
# Assay: Degradation of overexpressed BTK C481S in transfected U2OS cells
# Format: cell-based
# Conditions: overexpressed WT vs C481S BTK, 100 nM, 24 h
# Experimental: Figure 5 Degradation of overexpressed BTK and BTK C481S in U2OS cells. (A) Transfected U2OS cells were treated with 100 nM PROTAC for 24 h, followed by measuring BTK levels via Western blot. (B) Quantification of normalized BTK levels in (A). TEXT PRINTED IN THE PICTURE: (A) IR-1: BTK % control: 43 (Transfection: BTK-WT; PROTAC 24h [0.1 μM]); BTK % control: 67 (Transfection: BTK-C481S; PROTAC 24h [0.1 μM]) | (A) RC-2: BTK % control: 58 (Transfection: BTK-WT; PROTAC 24h [0.1 μM]); BTK % control: 73 (Transfection: BTK-C481S; PROTAC 24h [0.1 μM]) | (A) IR-2: BTK % control: 41 (Transfection: BTK-WT; PROTAC 24h [0.1 μM]); BTK % control: 62 (Transfection: BTK-C481S; PROTAC 24h [0.1 μM]) | (A) NC-1: BTK % control: 27 (Transfection: BTK-WT; PROTAC 24h [0.1 μM]); BTK % control: 49 (Transfection: BTK-C481S; PROTAC 24h [0.1 μM]) | (A) RC-3: BTK % control: 27 (Transfection: BTK-WT; PROTAC 24h [0.1 μM]); BTK % control: 104 (Transfection: BTK-C481S; PROTAC 24h [0.1 μM]) DOUBTS OF THE COPYIST ABOUT THIS PICTURE: The % control numbers are printed under a Western blot. They are given here as printed results for each compound. The vehicle and untransfected lanes (DMSO 100 and 100, Un 1 and 0) were left out as controls. / Panel B prints no numbers for its bars, so nothing was taken from it.
# Ramos (ATCC, CRL-1596), Mino (ATCC, CRL-3000), or K562 (NCI-60) cell lines were counted and diluted to 10^6 cell/mL, using 1 mL per well in a 24-well plate, and U2OS (ATCC HTB-96) cells overexpressing human BTK WT or C481S mutant were grown using 2 mL in a six-well plate (see Supporting Information). Cells were incubated with 1% DMSO or compound in indicated concentrations for 24 h unless indicated differently, or cells were left untreated. Lysates were prepared as previously described,[29] and samples were measured for total protein quantification by bicinchoninic acid (BCA) assay (#23225 ThermoFisher Scientific) supplemented with 4× loading buffer including 20 mM DTT, heated to 70 °C for 10 min, loaded into 4% SDS-PAGE gel, run for 45 min at 140 mV, then transferred into a nitrocellulose membrane (Biorad) using a Trans-Blot Turbo transfer system (Biorad). The membrane was stained with Ponceau (Sigma) to validate transfer for 10 min in gentle agitation then destained for 1 h with MQ water. The membrane was blocked with Licor blocking buffer (LIC927-70001) for 1 h, washed three times for 5 min with TBS-T, incubated with primary antibody BTK (D3H5) rabbit mAb (CST; 8547 S) overnight (16 h) at 4 °C, washed three times for 5 min with TBS-T, and incubated with primary antibody against β-actin (CST; 3700) for 1 h at 25 °C. Membrane was washed three times for 5 min with TBS-T, incubated with fluorescent secondary antibodies anti-mouse IgG Alexa Fluor 647 (CST: 4410S) and anti-rabbit-IgG IRDye 800(LICOR: 926-32211) for 1 h, then washed three times for 5 min with TBS-T, dried, and immediately imaged and analyzed using Licor Odyssey CLx. Prism (GraphPad) software was used to calculate degradation levels. We used second-order polynomial fits to estimate DC50 and Dmax values.
# Cloning and Over Expression of BTK
# Human wild type BTK full length was obtained from the ORFeome (ref: http://www.orfeomecollaboration.org/), from which the full human BTK gene (clone HsCD00433457) was inserted into the mammalian expression vector pCDNA3.1. In parallel, a mutant BTK C481S was constructed by assemble 2 PCR products harboring the desired mutation and cloned into pCDNA3.1. […]
# T1 sequence (Q06187 whole entry C481S): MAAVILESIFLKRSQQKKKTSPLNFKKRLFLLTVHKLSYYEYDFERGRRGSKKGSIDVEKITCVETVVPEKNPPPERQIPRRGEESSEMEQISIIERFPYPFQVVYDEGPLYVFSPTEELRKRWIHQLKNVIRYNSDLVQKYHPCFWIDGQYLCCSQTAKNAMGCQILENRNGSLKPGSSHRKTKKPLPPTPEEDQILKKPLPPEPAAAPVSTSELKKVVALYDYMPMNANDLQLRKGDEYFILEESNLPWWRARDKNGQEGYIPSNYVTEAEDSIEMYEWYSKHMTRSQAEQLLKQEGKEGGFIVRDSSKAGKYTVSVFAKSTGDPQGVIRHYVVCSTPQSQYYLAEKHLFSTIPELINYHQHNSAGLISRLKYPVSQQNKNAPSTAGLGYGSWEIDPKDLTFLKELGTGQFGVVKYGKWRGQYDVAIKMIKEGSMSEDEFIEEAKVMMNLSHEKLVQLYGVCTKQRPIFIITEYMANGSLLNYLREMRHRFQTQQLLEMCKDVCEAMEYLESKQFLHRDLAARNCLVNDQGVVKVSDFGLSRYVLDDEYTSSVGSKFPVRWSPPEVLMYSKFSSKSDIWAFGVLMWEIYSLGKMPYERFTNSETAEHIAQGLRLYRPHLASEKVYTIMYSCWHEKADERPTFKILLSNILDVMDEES
row,sensitivity of degradation to the C481S mutation,Structure (SMILES)
1,low sensitivity to the mutation,N#CC(=CCCCCOCCOCCOCCOCCOc1cccc2c1C(=O)N(C1CCC(=O)NC1=O)C2=O)C(=O)N1CCCC(n2nc(-c3ccc(Oc4ccccc4)cc3)c3c(N)ncnc32)C1 (centres unmarked) [RC-2]
2,severely impaired by the mutation,CC(C)(C=C(C#N)C(=O)N1CCCC(n2nc(-c3ccc(Oc4ccccc4)cc3)c3c(N)ncnc32)C1)CCCOCCOCCOCCOCCOc1cccc2c1C(=O)N(C1CCC(=O)NC1=O)C2=O (centres unmarked) [RC-3]

# Second part, the compound before the results:
row,Structure (SMILES),sensitivity of degradation to the C481S mutation
1,Nc1ncnc2c1c(-c1ccc(Oc3ccccc3)cc1)nn2C1CCCN(C(=O)C=CCCCCOCCOCCOCCOCCOc2cccc3c2C(=O)N(C2CCC(=O)NC2=O)C3=O)C1 (centres unmarked) [IR-2],low sensitivity to the mutation
2,Nc1ncnc2c1c(-c1ccc(Oc3ccccc3)cc1)nn2C1CCCN(C(=O)C=CCOCCOCCOCCOCCOCCOc2cccc3c2C(=O)N(C2CCC(=O)NC2=O)C3=O)C1 (centres unmarked) [IR-1],low sensitivity to the mutation
3,Nc1ncnc2c1c(-c1ccc(Oc3ccccc3)cc1)nn2C1CCCN(C(=O)CCCCCCOCCOCCOCCOCCOc2cccc3c2C(=O)N(C2CCC(=O)NC2=O)C3=O)C1 (centres unmarked) [NC-1],only mildly affected by the mutation

# Source: article PMC7349657, “Efficient Targeted Degradation via Reversible and Irreversible Covalent PROTACs” (Journal of the American Chemical Society, 2020)
